Assay results: ChEMBL document CHEMBL5678818, “Discovery of potent SOS1 inhibitors that block RAS activation via disruption of the RAS-SOS1 interaction” (Proc Natl Acad Sci U S A, 2019)

Legend:
[1] = test system: Receptor-type tyrosine-protein kinase FLT3 (Homo sapiens), P36888 [K663Q]; experiment: Inhibition of FLT3 K663Q mutant (unknown origin) assessed as residual activity at 1000 nM by KINOMEscan analysis relative to control
[2] = target: T1, Serine/threonine-protein kinase Nek3 (Homo sapiens) (UniProt P51956); experiment: Inhibition of NEK3 (unknown origin) assessed as residual activity at 1000 nM by KINOMEscan analysis relative to control
T1 sequence (whole entry): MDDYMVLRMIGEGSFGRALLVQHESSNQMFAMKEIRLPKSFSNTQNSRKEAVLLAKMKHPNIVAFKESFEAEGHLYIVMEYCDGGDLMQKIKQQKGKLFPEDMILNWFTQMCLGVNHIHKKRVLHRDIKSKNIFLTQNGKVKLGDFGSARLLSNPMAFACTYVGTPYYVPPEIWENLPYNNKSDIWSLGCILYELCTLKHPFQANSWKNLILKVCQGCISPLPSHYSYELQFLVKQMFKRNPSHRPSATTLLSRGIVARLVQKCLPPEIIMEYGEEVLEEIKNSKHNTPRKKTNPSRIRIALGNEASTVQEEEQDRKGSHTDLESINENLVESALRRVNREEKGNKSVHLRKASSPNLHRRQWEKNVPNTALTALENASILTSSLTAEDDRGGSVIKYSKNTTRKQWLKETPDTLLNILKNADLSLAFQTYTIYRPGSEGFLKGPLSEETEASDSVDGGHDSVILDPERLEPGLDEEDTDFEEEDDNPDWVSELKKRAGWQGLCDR

[3] = target: Tyrosine-protein kinase Lyn (Homo sapiens) (UniProt P07948); experiment: Inhibition of LYN (unknown origin) assessed as residual activity at 100 nM by KINOMEscan analysis relative to control
Sequence of Tyrosine-protein kinase Lyn (Homo sapiens) (P07948 2-512 limits assumed): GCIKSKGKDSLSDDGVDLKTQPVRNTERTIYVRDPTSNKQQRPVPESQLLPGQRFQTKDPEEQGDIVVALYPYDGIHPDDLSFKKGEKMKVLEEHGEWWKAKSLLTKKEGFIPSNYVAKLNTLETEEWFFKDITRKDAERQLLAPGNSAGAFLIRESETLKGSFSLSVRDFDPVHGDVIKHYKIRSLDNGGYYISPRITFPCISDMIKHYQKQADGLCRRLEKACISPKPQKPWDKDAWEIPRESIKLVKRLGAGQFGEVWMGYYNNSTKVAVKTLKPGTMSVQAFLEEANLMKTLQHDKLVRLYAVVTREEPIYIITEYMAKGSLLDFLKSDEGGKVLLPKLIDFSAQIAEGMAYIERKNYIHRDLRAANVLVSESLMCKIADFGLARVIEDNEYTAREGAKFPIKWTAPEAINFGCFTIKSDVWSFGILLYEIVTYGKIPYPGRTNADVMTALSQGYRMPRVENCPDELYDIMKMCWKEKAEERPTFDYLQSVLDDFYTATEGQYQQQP

[4] = test system: Leucine-rich repeat serine/threonine-protein kinase 2 (Homo sapiens), Q5S007 [G2019S]; experiment: Inhibition of LRRK2 G2019S mutant (unknown origin) assessed as residual activity at 100 nM by KINOMEscan analysis relative to control
[5] = target: Macrophage colony-stimulating factor 1 receptor (Homo sapiens) (UniProt P07333); experiment: Inhibition of CSF1R (unknown origin) assessed as residual activity at 100 nM by KINOMEscan analysis relative to control
Sequence of Macrophage colony-stimulating factor 1 receptor (Homo sapiens) (P07333 whole entry): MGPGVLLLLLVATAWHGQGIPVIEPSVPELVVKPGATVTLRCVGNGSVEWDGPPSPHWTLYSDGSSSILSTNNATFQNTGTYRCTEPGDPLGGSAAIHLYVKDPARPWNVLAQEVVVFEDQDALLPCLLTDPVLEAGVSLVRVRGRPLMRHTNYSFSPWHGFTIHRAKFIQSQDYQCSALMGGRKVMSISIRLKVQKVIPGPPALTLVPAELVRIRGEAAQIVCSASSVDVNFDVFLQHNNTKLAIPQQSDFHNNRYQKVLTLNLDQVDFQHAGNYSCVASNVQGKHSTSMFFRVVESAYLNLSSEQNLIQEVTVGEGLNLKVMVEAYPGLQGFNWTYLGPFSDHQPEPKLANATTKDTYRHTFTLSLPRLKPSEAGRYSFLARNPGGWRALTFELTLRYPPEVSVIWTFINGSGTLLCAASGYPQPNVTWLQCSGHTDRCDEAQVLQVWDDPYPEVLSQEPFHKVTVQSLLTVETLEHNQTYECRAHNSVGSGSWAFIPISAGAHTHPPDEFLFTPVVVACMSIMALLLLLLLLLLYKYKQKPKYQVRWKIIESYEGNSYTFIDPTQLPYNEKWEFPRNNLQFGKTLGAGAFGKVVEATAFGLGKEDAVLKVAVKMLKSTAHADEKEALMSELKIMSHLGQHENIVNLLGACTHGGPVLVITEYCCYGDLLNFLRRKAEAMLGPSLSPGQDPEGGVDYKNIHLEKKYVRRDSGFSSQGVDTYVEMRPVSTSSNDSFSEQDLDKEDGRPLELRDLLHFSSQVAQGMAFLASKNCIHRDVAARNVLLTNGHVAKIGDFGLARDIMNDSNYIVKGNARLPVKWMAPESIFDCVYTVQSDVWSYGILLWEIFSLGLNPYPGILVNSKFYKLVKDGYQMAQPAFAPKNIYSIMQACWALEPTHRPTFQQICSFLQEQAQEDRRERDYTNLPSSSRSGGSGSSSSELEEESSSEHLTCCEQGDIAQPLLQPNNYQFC

[6] = target: Tyrosine-protein kinase ABL2 (Homo sapiens) (UniProt P42684); experiment: Inhibition of ABL2 (unknown origin) assessed as residual activity at 100 nM by KINOMEscan analysis relative to control
Sequence of Tyrosine-protein kinase ABL2 (Homo sapiens) (P42684 whole entry, canonical isoform): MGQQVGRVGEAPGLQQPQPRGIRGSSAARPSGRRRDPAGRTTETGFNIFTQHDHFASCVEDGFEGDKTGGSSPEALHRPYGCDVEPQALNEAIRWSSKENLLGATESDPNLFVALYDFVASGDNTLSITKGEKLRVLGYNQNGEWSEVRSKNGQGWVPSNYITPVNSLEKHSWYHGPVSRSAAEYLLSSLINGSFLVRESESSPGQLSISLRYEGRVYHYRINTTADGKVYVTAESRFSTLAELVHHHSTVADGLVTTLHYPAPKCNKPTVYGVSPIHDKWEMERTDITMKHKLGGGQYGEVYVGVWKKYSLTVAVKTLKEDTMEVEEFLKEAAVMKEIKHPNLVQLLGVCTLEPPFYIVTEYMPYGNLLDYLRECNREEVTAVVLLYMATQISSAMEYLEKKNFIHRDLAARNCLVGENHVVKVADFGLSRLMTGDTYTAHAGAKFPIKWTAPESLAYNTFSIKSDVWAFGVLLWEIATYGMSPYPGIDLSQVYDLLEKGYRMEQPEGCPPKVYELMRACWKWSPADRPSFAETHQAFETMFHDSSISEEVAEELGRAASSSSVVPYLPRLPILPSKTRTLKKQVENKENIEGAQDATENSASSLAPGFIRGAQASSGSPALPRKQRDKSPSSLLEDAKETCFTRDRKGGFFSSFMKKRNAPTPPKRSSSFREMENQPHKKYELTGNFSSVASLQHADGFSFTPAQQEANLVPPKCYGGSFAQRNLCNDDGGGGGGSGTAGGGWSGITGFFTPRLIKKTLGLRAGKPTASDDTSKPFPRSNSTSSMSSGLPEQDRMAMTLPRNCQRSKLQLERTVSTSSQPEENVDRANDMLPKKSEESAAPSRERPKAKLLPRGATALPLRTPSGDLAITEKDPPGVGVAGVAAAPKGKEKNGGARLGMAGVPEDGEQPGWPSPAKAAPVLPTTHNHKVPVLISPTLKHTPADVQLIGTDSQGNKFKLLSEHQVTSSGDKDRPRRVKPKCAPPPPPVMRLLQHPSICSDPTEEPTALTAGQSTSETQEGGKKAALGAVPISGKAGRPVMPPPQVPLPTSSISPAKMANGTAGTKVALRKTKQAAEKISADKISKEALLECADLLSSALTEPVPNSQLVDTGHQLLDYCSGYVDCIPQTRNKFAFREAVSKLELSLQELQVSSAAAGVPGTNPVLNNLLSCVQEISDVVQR

[7] = target: T2, Casein kinase I isoform alpha-like (Homo sapiens) (UniProt Q8N752); experiment: Inhibition of CSNK1A1L (unknown origin) assessed as residual activity at 100 nM by KINOMEscan analysis relative to control
T2 sequence (whole entry): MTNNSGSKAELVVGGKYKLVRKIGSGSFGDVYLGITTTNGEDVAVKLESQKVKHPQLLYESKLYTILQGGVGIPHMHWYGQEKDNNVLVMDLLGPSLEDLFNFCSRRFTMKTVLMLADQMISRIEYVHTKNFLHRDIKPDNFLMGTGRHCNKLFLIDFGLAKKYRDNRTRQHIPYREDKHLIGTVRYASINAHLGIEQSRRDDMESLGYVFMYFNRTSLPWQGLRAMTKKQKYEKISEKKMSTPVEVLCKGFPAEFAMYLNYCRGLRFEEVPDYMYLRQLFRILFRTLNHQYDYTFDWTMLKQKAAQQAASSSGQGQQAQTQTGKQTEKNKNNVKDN

[8] = target: Cyclin-dependent kinase 5 (Homo sapiens) (UniProt Q00535); experiment: Inhibition of CDK5 (unknown origin) assessed as residual activity at 100 nM by KINOMEscan analysis relative to control
Sequence of Cyclin-dependent kinase 5 (Homo sapiens) (Q00535 whole entry, looked up): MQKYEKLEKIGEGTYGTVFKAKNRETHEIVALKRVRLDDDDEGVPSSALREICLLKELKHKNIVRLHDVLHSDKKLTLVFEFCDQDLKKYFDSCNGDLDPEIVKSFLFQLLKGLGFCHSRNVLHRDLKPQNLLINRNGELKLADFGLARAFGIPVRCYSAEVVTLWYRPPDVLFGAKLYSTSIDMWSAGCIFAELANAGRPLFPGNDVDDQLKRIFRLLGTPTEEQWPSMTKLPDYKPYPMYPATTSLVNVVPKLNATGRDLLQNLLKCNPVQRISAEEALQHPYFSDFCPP

[9] = target: Maternal embryonic leucine zipper kinase (Homo sapiens) (UniProt Q14680); experiment: Inhibition of MELK (unknown origin) assessed as residual activity at 100 nM by KINOMEscan analysis relative to control
[10] = target: Cyclin-dependent kinase 2 homolog (Plasmodium falciparum (isolate K1 / Thailand)) (UniProt Q07785); experiment: Inhibition of Plasmodium falciparum PK5 assessed as residual activity at 100 nM by KINOMEscan analysis relative to control
[11] = target: MAP kinase-interacting serine/threonine-protein kinase 1 (Homo sapiens) (UniProt Q9BUB5); experiment: Inhibition of MKNK1 (unknown origin) assessed as residual activity at 100 nM by KINOMEscan analysis relative to control
Sequence of MAP kinase-interacting serine/threonine-protein kinase 1 (Homo sapiens) (Q9BUB5 whole entry, looked up): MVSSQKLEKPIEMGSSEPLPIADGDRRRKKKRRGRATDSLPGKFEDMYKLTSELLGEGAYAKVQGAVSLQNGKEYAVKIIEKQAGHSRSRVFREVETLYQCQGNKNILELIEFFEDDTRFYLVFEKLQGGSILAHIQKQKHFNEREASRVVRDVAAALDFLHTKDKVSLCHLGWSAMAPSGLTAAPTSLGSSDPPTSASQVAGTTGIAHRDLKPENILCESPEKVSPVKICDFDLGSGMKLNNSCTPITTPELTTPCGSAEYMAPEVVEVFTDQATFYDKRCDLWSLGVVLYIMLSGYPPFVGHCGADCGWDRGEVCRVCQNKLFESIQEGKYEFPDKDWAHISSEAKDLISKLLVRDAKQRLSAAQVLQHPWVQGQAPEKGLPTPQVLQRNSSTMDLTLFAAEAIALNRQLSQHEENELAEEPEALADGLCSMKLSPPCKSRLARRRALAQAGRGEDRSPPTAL

[12] = test system: Tyrosine-protein kinase ABL1 (Homo sapiens), P00519 [F317I]; experiment: Inhibition of phosphorylated ABL1 F317I mutant (unknown origin) assessed as residual activity at 100 nM by KINOMEscan analysis relative to control
Sequence of Tyrosine-protein kinase ABL1 (Homo sapiens), P00519 [F317I] (P00519 whole entry F317I): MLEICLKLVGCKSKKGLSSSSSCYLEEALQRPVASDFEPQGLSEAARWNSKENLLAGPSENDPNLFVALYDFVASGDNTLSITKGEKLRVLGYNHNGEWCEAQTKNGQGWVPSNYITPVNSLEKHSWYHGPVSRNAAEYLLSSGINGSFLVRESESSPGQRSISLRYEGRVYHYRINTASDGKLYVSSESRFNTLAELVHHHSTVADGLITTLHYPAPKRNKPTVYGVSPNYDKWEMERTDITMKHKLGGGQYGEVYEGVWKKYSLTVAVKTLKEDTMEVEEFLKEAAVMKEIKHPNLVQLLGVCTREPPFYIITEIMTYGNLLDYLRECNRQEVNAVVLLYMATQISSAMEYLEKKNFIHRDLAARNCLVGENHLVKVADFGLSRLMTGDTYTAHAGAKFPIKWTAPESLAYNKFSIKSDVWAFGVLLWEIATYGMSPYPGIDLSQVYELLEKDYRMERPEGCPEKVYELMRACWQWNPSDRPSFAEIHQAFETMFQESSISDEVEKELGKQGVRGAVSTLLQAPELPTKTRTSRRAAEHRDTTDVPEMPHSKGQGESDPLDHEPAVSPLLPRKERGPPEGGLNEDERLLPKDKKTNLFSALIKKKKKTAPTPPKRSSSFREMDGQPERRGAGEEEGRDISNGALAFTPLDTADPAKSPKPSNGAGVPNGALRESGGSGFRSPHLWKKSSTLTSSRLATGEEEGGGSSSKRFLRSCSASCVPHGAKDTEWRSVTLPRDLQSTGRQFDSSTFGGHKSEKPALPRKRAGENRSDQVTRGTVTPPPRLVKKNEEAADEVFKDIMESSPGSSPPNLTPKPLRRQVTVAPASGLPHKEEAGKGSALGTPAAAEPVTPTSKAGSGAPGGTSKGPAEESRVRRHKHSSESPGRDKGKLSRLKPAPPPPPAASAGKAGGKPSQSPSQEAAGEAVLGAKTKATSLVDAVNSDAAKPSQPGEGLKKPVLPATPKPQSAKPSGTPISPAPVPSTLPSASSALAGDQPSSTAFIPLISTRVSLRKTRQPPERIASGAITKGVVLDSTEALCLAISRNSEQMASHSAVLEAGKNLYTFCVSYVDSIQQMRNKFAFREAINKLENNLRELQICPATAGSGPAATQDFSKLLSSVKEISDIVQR

[13] = target: Ribosomal protein S6 kinase alpha-2 (Homo sapiens) (UniProt Q15349); experiment: Inhibition of N-terminal RSK3 […] domain 1 (unknown origin) assessed as residual activity at 100 nM by KINOMEscan analysis relative to control
[14] = target: Calcium/calmodulin-dependent protein kinase kinase 1 (Homo sapiens) (UniProt Q8N5S9); experiment: Inhibition of CAMKK1 (unknown origin) assessed as residual activity at 100 nM by KINOMEscan analysis relative to control
[15] = target: Serine/threonine-protein kinase pim-1 (Homo sapiens) (UniProt P11309); experiment: Inhibition of PIM1 (unknown origin) assessed as residual activity at 100 nM by KINOMEscan analysis relative to control
Sequence of Serine/threonine-protein kinase pim-1 (Homo sapiens) (P11309 whole entry, looked up): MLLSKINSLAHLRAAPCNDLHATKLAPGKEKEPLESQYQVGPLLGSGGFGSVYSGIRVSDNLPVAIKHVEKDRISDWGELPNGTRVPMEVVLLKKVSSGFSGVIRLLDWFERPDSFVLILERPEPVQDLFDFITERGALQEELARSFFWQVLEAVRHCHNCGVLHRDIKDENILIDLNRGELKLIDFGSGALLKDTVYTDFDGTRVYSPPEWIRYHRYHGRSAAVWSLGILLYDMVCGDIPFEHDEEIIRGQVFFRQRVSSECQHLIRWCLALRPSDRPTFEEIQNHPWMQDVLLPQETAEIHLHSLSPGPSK

| Structure (SMILES) | Activity [1] [%] | Activity [2] [%] | Activity [3] [%] | Activity [4] [%] | Activity [5] [%] | Activity [6] [%] | Activity [7] [%] | Activity [8] [%] | Activity [9] [%] | Activity [10] [%] | Activity [11] [%] | Activity [12] [%] | Activity [13] [%] | Activity [14] [%] | Activity [15] [%] |
| --- | --- | --- | --- | --- | --- | --- | --- | --- | --- | --- | --- | --- | --- | --- | --- |
| COc1cc2nc(C)nc(N[C@H](C)c3cccc(-c4cn[nH]c4)c3)c2cc1OC | 90 | 42 | – | – | – | – | – | – | – | – | – | – | – | – | – |
| COc1cc2ncnc(N[C@H](C)c3cccc4ccccc34)c2cc1OC | 96 | 93 | 84 | 92 | 100 | 81 | 100 | 83 | 73 | 100 | 61 | 91 | 100 | 76 | 89 |
